Measurements taken from patent EP4722195A1, “PH-SENSITIVE CATIONIC LIPID AND LIPID NANOPARTICLES” (National University Corporation Hokkaido University, priority 2023, dated 2024).

Tests used:
[1] = Zeta potential of lipid nanoparticles; assay type: physicochemical
Procedure: (§1) The average particle size (number average value), ζ-average particle size, and polydispersity index (PdI) of the lipid nanoparticles in PBS(-) (pH 7.4), and the zeta potential in 10 mM HEPES buffer (pH 7.4) were measured using an analyzer "Zetasizer Nano ZS ZEN3600" (manufactured by Malvern) utilizing dynamic light scattering.

[2] = Encapsulation rate of lipid nanoparticles (Ribogreen); assay type: physicochemical
Outline: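 Ribogreen fluorescence (Ex/Em 500/525 nm) measured after mixing sample 1:1 with 10 mM HEPES pH 7.4 buffer with or without Triton X-100. mRNA quantified from a calibration curve of known mRNA dilutions; encapsulation rate (%) calculated from Triton(+) versus Triton(−) signals.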

liver [3] = assay: Fluc activity in the liver of mice administered Fluc mRNA-loaded lipid nanoparticles; assay type: in vivo, BALB/c mice
Procedure: Lipid nanoparticles were administered to mice by intravenous injection into the tail vein using a 27G needle. Unless otherwise specified, BALB/c mice (4 to 5 weeks old, female) were used.
First, BALB/c mice (female, 4 weeks old) were intravenously injected with lipid nanoparticles encapsulating Fluc mRNA (Fluc mRNA-loaded lipid nanoparticles) at a dose of 0.1 mg mRNA/kg. Six hours after intravenous injection, the mice were euthanized, each tissue was collected, frozen in liquid nitrogen, and stored at -80°C. The tissues were homogenized in passive lysis buffer (manufactured by Promega) using a bead-type cell disruptor (Micro Smash MS-100R, manufactured by TOMY Seiko). Tissue debris was removed by centrifugation, and the supernatant was collected. Fluc activity in the supernatant was measured using the Luciferase Assay System (E1500, manufactured by Promega) according to the manufacturer's protocol. Luminescence was measured using a luminometer (Luminescencer-PSN, manufactured by ATTO). Protein concentration was determined using a commercially available assay kit (BCA Protein Assay Kit, manufactured by Pierce). Fluc activity was expressed as relative light units (RLU) per mg of protein.
Subsequently, lipid nanoparticles encapsulating Fluc mRNA prepared using TxT-5-5A10, TxT-5-5A12, TxT-5-5A12β, TxT-5-5A14, and TxT-5-5A16 were administered to mice to evaluate luciferase expression levels (Fluc activity) in various tissues. Specifically, each Fluc mRNA-loaded lipid nanoparticle was administered to Balb/c mice at a dose of 0.1 mg mRNA/kg. Six hours after administration, the mice were euthanized, and their organs were collected to measure Fluc activity (RLU/mg protein) (N = 2 or 4).

[4] = Average particle size and polydispersity index of lipid nanoparticles (dynamic light scattering); assay type: physicochemical
Procedure: as §1

liver [5] = assay: EGFP expression in liver tissue sections of mice administered EGFP mRNA-loaded lipid nanoparticles (confocal microscopy); assay type: in vivo, Balb/c mice
Procedure: Subsequently, each EGFP mRNA-loaded lipid nanoparticle was administered to Balb/c mice at a dose of 0.2 mg mRNA/kg. At 23 hours and 50 minutes post-administration, fluorescently labeled lectin (DyLight-649 Lycopersicon (Tomato) Lectin) was intravenously injected via the tail vein at 40 µg/mouse to fluorescently label vascular endothelial cells. At 24 hours after administration of the lipid nanoparticles, the mice were euthanized, and their livers were collected to prepare tissue sections. For nuclear staining, the tissue sections were immersed in a nuclear staining solution (1 µg/mL Hoechst 33342 dissolved in PBS(-)), cooled on ice, and incubated for at least 30 minutes in the dark. The stained tissue sections were then observed using a confocal laser scanning microscope. Subsequently, in the same manner as Example 26, each EGFP mRNA-loaded lipid nanoparticle was administered to Balb/c mice. At 23 hours and 50 minutes post-administration, fluorescently labeled lectin was administered. At 24 hours after administration of the lipid nanoparticles, the mice were euthanized, and their livers were collected to prepare tissue sections. Each tissue section was observed using a confocal laser scanning microscope. In the figure, the upper panels show fluorescence images of EGFP, and the lower panels show fluorescence images of vascular endothelial cells (fluorescently labeled lectin).

[6] = Table 1, Fluc mRNA-loaded lipid nanoparticles, TxT/DSPC/chol/PEG-DMG=50/15/35/1.5 (mol%)
[7] = Table 3, Fluc mRNA-loaded lipid nanoparticles, TxT/DSPC/chol/PEG-DMG=50/3/47/1.5 (mol%)
[8] = Table 4, Fluc mRNA-loaded lipid nanoparticles, TxT-5-5A14/DSPC/chol/PEG-DMG=50/3/47/1.5, SM-102, ALC-0315 or MC3/DSPC/chol/PEG-DMG=50/10/40/1.5 (mol%)
[9] = Table 5, EGFP mRNA-loaded lipid nanoparticles, TxT/DSPC/chol/PEG-DMG=50/3/47/1.5 (mol%), total flow rate 3.0 mL/min
[10] = Table 6 (Example 28), Fluc mRNA-loaded lipid nanoparticles, TxT/DSPC/chol/PEG-DMG=50/3/47/1.5 (mol%)
[11] = Table 7, hEPO mRNA-loaded lipid nanoparticles, TxT/DSPC/chol/PEG-DMG=50/3/47/1.5, SM-102/DSPC/chol/PEG-DMG=50/10/40/1.5 (mol%)
[12] = Table 8 (Example 32), lipid nanoparticles for TTR-targeted genome editing, Cas9-mRNA and TTR-gRNA 1:2 (N/P = 6.0), TxT/DSPC/chol/PEG-DMG = 50/3/47/1.5 (mol%)
[13] = Table 9 (Example 33), lipid nanoparticles for TTR-targeted genome editing, Cas9-mRNA and TTR-gRNA 1:2 (N/P = 6.0), TxT-5-5A14/DSPC/chol/PEG-DMG = 50/3/47/1.5 (mol%)
[14] = Table 10 (Example 34), lipid nanoparticles for PCSK9-targeted genome editing, Cas9-mRNA and PCSK9-gRNA 1:2 (N/P = 6.0), TxT-5-5A14/DSPC/chol/PEG-DMG = 50/3/47/1.5 (mol%)
[15] = Example 27, Fig. 6, EGFP mRNA-loaded lipid nanoparticles TxT/DSPC/chol/PEG-DMG=50/3/47/1.5 (mol%), 24 hours post-administration

CCCCCCCN(CCCCCCC)C(=O)CCCC(=O)OCC(COC(=O)CCCC(=O)N(CCCCCCC)CCCCCCC)(COC(=O)CCCC(=O)N(CCCCCCC)CCCCCCC)NC(=O)CCN1CCCCC1 [TxT-5-5A14, 2-(((5-(diheptylamino)-5-oxopentanoyl)oxy)methyl)-2-(3-(piperidin-1-yl)propanamido)propane-1,3-diyl bis(5-(diheptylamino)-5-oxopentanoate)]
ζ-potential [1, 6]: -3.4 mV | ζ-potential [1, 7]: -7.5 mV | ζ-potential [1, 8]: -8.9 mV | ζ-potential [1, 9]: -13.0 mV | ζ-potential [1, 10]: -6.4 mV | ζ-potential [1, 11]: -1.4 mV | ζ-potential [1, 12]: -5.5 mV | ζ-potential [1, 13]: -4.0 mV | ζ-potential [1, 14]: -1.6 mV | mRNA concentration [2, 6]: 0.025 µg/µL | mRNA encapsulation rate [2, 6]: 98.8% | mRNA concentration [2, 7]: 0.022 µg/µL | mRNA encapsulation rate [2, 7]: 98.6% | mRNA concentration [2, 8]: 0.022 µg/µL | mRNA encapsulation rate [2, 8]: 99.4% | mRNA concentration [2, 9]: 0.023 µg/µL | mRNA encapsulation rate [2, 9]: 99.0% | mRNA concentration [2, 10]: 0.021 µg/µL | mRNA encapsulation rate [2, 10]: 98.2% | mRNA concentration [2, 11]: 0.022 µg/µL | mRNA encapsulation rate [2, 11]: 99.3% | mRNA concentration [2, 12]: 0.467 µg/µL | mRNA encapsulation rate [2, 12]: 96.5% | mRNA concentration [2, 13]: 0.037 µg/µL | mRNA encapsulation rate [2, 13]: 99.1% | mRNA concentration [2, 14]: 0.311 µg/µL | mRNA encapsulation rate [2, 14]: 97.1% | Fluc activity (liver), comparison among TxT lipids (liver [3]; Example 24, Fig. 3A, TxT/DSPC/chol/PEG-DMG=50/3/47/1.5 (mol%), 0.1 mg mRNA/kg, six hours): highest Fluc activity | Fluc activity in the liver compared to lipid nanoparticles comprising other cationic lipids (SM-102, ALC-0315, MC3) (liver [3]; Example 25, Fig. 4, TxT-5-5A14 50/3/47/1.5, comparators 50/10/40/1.5 (mol%), 0.1 mg mRNA/kg, six hours, N = 3): significantly higher Fluc activity | Fluc activity in the liver at 6, 24, and 48 hours after administration (liver [3]; Example 28, Fig. 7, TxT-5-5A12β versus TxT-5-5A14 nanoparticles, 50/3/47/1.5 (mol%), N = 3): comparable levels of gene expression at all time points | Pdl [4, 6]: 0.11 | number average particle size [4, 6]: 72.4 nm | ζ-average particle size [4, 6]: 106.2 nm | Pdl [4, 7]: 0.08 | number average particle size [4, 7]: 78.9 nm | ζ-average particle size [4, 7]: 101.0 nm | Pdl [4, 8]: 0.08 | number average particle size [4, 8]: 82.4 nm | ζ-average particle size [4, 8]: 113.8 nm | Pdl [4, 9]: 0.06 | number average particle size [4, 9]: 80.9 nm | ζ-average particle size [4, 9]: 106.0 nm | Pdl [4, 10]: 0.09 | number average particle size [4, 10]: 79.6 nm | ζ-average particle size [4, 10]: 107.7 nm | Pdl [4, 11]: 0.04 | number average particle size [4, 11]: 76.6 nm | ζ-average particle size [4, 11]: 103.4 nm | Pdl [4, 12]: 0.05 | number average particle size [4, 12]: 66.4 nm | ζ-average particle size [4, 12]: 82.2 nm | Pdl [4, 13]: 0.10 | number average particle size [4, 13]: 67.7 nm | ζ-average particle size [4, 13]: 91.8 nm | Pdl [4, 14]: 0.10 | number average particle size [4, 14]: 73.6 nm | ζ-average particle size [4, 14]: 99.4 nm | GFP expression in cell types of the liver (liver [5]; Example 26, Fig. 5, EGFP mRNA-loaded lipid nanoparticles 50/3/47/1.5 (mol%), 0.2 mg mRNA/kg, 24 hours after administration): GFP expression was observed not only in hepatocytes but also in vascular endothelial cells | fluorescence of EGFP in the liver tissues (liver [5]; [15]): fluorescence of EGFP was observed | gene expression in hepatocytes (liver [5]; [15]): notably high levels of gene expression
